Assay results reported in patent US10966979B2 (Sandoz AG, priority 2017, dated 2021).

Assays:
[1] = Behaviour of elagolix sodium upon moisture contact (hygroscopicity, deliquescence); type: physicochemical; conditions: no further conditions given
From the text: Said properties require special care and precautionary measures such as a controlled atmosphere during pharmaceutical processing, which renders manufacturing cumbersome and expensive. […] Such formulations may negatively influence patients' compliance, in particular for elderly people having troubles swallowing.
As used herein the term “deliquescent” means the property of a solid form of a compound to readily absorb moisture form the surrounding atmosphere until it deliquesces and forms a solution upon storage for 14 days at 40° C., atmospheric pressure and 75% relative humidity.

[2] = Accelerated stress test at 40° C./75% RH (physical stability by powder X-ray diffraction and visual control of consistency); type: physicochemical
Method: Powder X-ray diffraction was performed with a PANalytical X'Pert PRO diffractometer equipped with a theta/theta coupled goniometer in transmission geometry, Cu-Kalpha1,2 radiation (wavelength 0.15419 nm) with a focusing mirror and a solid state PIXcel detector. Diffractograms were recorded at a tube voltage of 45 kV and a tube current of 40 mA, applying a stepsize of 0.013° 2-Theta with 40 s per step (255 channels) in the angular range of 2° to 40° 2-Theta at ambient conditions.
Example 2: Accelerated Stress Test at 40° C./75% RH With Solid Dispersions Comprising Amorphous Elagolix Sodium and at Least One Silicon-Based Inorganic Compound in a 1:1 Weight Ratio vs. Neat Elagolix Sodium
The physical stability against moisture and temperature stress has been tested for different solid dispersions comprising amorphous elagolix sodium and at least one silicon-based inorganic compound and for neat amorphous elagolix. For this purpose, the solid dispersions were stored open at accelerated stress conditions of 40° C. and 75% RH for 1, 3 and 6 weeks respectively. The physical stability has been investigated by means of powder X-ray diffraction and the consistency of the samples was visually controlled.

In the case of `COc1cccc(-c2c(C)n(Cc3c(F)cccc3C(F)(F)F)c(=O)n(C[C@H](NCCCC(=O)O)c3ccccc3)c2=O)c1F` [elagolix Na, 4-[[(1R)-2-[5-(2-fluoro-3-methoxyphenyl)-3-[[2-fluoro-6-(trifluoromethyl)phenyl]methyl]-3,6-dihydro-4-methyl-2,6-dioxo-1(2H)-pyrimidinyl]-1-phenylethyl]amino]butanoic acid], the “hygroscopicity / deliquescence upon moisture contact” value ([1]; listed as elagolix sodium) was “highly hygroscopic”, the “hygroscopicity / deliquescence upon moisture contact” value ([1]; listed as neat amorphous elagolix sodium) was “deliquesces fairly quickly” and the “consistency / deliquescence during the stress test” value ([2]; accelerated stress conditions of 40° C. and 75% RH, up to 6 weeks) was “deliquesced fairly quickly”. For the same compound, the Initial sample ([2]; solid state and consistency before storage, PXRD and visual control) was “amorphous solid” and the “1 week at 40° C./75% RH” value ([2]; stored open, 1 week, 40° C., 75% RH, PXRD and visual control) was “deliquescence”.
